# Experimental data as given in patent US9872861B2, “Methods of treatment using selective Bcl-2 inhibitors” (AbbVie Inc., priority 2010, dated 2018).
# Read-outs that look alike come from different tables or passages of the source. Marks after values point to notes of the source that are not given here.
# What was measured:
# [1] = Exposure in IFNα-induced lupus model; format: in vivo
# Method: (§1) Treatment was initiated in a late-prophylactic mode (7 days after IFNα adenovirus). […] All treatment groups were administered treatment 7 days after adenovirus injection. Following adenovirus injection, mice were monitored weekly for proteinuria (PU) using Albustix test strips (VWR). Severe PU was defined by consecutive weekly measurements of PU≧300 mg/dl. When mice became moribund, they were sacrificed according to Institutional Animal Care and Use Committee protocols.
# [2] = test system: FL5.12-Bcl-2 cells; assay: Cellular efficacy in FL5.12 cells dependent on Bcl-2; format: cell-based, murine; settings: Mus musculus, 3% FBS
# [3] = test system: cells dependent on Bcl-2 for survival; assay: Mechanism of cell killing (apoptosis hallmarks); format: cell-based
# Excerpt: As also shown in Table 1B, additional compounds show selective binding affinity for Bcl-2 over Bcl-XL and other Bcl-2 family proteins.
# [4] = test system: peripheral blood immune cells; assay: Peripheral blood lymphocytes in C57BL/6 mice, Cell Dyn hematology analyzer; format: in vivo; settings: for inhibition in vivo at 100 mg/kg: Mus musculus, Lymphocyte
# Method: The effect of the Bcl-2 selective/Bcl-XL sparing compounds on peripheral blood immune cells was also evaluated in C57BL/6 mice. Mice were treated four days with individual compounds (100 mg/kg, orally every day) and cell numbers were measured with a Cell Dyn hematology analyzer.
# [5] = target: Mcl-1 (Homo sapiens, UniProt Q07820); assay: TR FRET competitive binding affinity, Mcl-1; settings: read-out: Target Affinity TR FRET, Mcl-1
# Chain of Mcl-1 (Q07820 whole entry): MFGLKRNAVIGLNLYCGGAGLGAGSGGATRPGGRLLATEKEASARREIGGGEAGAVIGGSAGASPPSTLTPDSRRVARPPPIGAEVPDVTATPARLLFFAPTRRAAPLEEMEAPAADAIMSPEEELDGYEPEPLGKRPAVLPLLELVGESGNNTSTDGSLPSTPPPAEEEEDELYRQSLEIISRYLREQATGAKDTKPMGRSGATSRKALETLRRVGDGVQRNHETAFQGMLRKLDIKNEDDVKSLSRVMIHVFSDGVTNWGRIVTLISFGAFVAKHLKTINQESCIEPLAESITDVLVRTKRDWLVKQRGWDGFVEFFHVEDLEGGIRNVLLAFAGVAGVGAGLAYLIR
# Method: A comparison of the binding affinity for each of the compounds was performed to determine target affinity, as measured by Time-Resolved Fluorescence Resonance Energy Transfer (TR FRET).
# [6] = test system: peripheral blood immune cells and platelets; assay: Peripheral blood lymphocytes and platelets in (NZB×NZW)F1 mice, Cell Dyn hematology analyzer; format: in vivo; settings: (NZB×NZW)F1 mice, four days, orally every day
# [7] = test system: H146 cells; assay: Cellular efficacy in Bcl-XL dependent tumor cell line H146; format: cell-based; settings: Homo sapiens, NCI-H146; 10% HS
# [8] = test system: FL5.12-Bcl-XL cells; assay: Cellular efficacy in FL5.12 cells dependent on Bcl-XL; format: cell-based, murine; settings: Mus musculus, 3% FBS
# [9] = test system: RS4;11 cells; assay: Cellular efficacy in Bcl-2 dependent tumor cell line RS4;11; format: cell-based, human; settings: 10% HS
# [10] = test system: submandibular salivary gland; assay: Salivary gland histology in spontaneous murine model of lupus; format: in vivo, (NZB×NZW)F1 mice
# Excerpt: It is recognized within the art that Sjogren's Syndrome is a chronic disease state that affects the moisture-producing glands of the body, including the salivary glands of the mouth. As such, it was theorized that penetration of the selective Bcl-2 inhibitors into the salivary glands of patients with Sjogren's Syndrome could provide an effective treatment to decrease lymphocytes associated with Sjogren's Syndrome, without the dose-limiting thrombocytopenia associated with non-selective Bcl-2 inhibition. A histologic assessment of the penetration of selective Bcl-2 inhibitors into the salivary glands of spontaneous murine model for lupus was performed to test this theory. The spontaneous murine model of lupus, as described in Example 3, was used for the histological assessment described herein. Specifically, sublingual and submandibular salivary glands were fixed in 10% neutral-buffered formalin and paraffin embedded. Five μm sections were H&E stained and semiquantitatively scored (0-4) by an experienced pathologist for inflammatory cell infiltrates. Salivary gland infiltrate scoring categories: (1) 3 or fewer small periductular foci, (2) 3 or more medium sized foci, (3) several extensive foci, and (4) coalescing to diffuse infiltrates. The histologic assessment of the submandibular tissue sections is illustrated in FIG. 11.
# [11] = test system: IgG anti-ds DNA; assay: Anti-ds DNA titer by ELISA in spontaneous lupus model; format: in vivo, (NZB×NZW)F1 mice
# Method: It is believed that Compound 1 triggers apoptosis of lymphocytes that are responsible for production of antibodies, which play a role in the progression of systemic lupus erythematosus, as well as Sjogren's Syndrome. […] Specifically, anti-dsDNA antibody levels were measured by ELISA and assigned arbitrary activity unit concentrations per ml relative to a standard plasma pool derived from proteinuric 9-10 month old NZB/W mice. ELISA assay was performed by coating plates with poly-L-lysine followed by calf-thymus DNA. Diluted mouse plasma was incubated and developed using anti-IgG HRP conjugated antibodies and the mean OD from duplicate wells was compared to a titrated standard curve of pooled high tittered anti-dsDNA plasma. The undiluted standard plasma pool was arbitrarily assigned a value of 1000 anti-dsDNA Units/ml. A linear regression analysis was then used to calculate the relative units of a given sample multiplied by the given dilution factor.
# [12] = Exposure in spontaneous lupus model; format: in vivo; settings: 30 mg/kg dosing
# Excerpt: When mice became moribund, they were sacrificed according to Institutional Animal Care and Use Committee protocols.
# [13] = test system: IFNα-induced (NZB×NZW)F1 lupus model; assay: IFNα-induced (NZB×NZW)F1 lupus model: proteinuria, survival, lymphopenia; format: in vivo, (NZB×NZW)F1 mice
# Method: as §1
# [14] = test system: renal tissue; assay: Renal histology and immunohistochemistry in spontaneous lupus nephritis mice; format: in vivo, (NZB×NZW)F1 mice
# Method: An experiment was performed to determine the extent to which the selective Bcl-2 inhibitors infiltrated the kidney tissue. Specifically, a histologic assessment of the penetration of selective Bcl-2 inhibitors into the renal tissue of spontaneous murine model for lupus was performed. The spontaneous murine model of lupus, as described in Example 3, was used for the histological assessment described herein. The kidneys were bisected and then fixed in 10% neutral-buffered formalin or cryopreserved (snap frozen). For H&E staining, 5-μm sections from paraffin-embedded tissues were semiquantitatively scored (0-4) by an experienced pathologist for glomerulonephritis and tubular changes (dilation and casts). For IgG immunohistochemistry, 5-μm cryosections were fixed with acetone, washed, and blocked with 10% normal goat serum. Sections were then incubated with FITC-conjugated goat anti-mouse IgG (Cappel/ICN Pharmaceuticals) or negative control HRP-goat IgG (Jackson ImmunoResearch Laboratories) and coverslipped using Vectashield with 4′,6-diamidino-2-phenylindole (Vector Laboratories). Sections were evaluated for severity of IgG deposition using a semiquantitative scoring system (from 0-4). To identify for B and T cells, immunohistochemistry for CD45R (B cells) and CD3 (T cells) was completed on paraffin sections. FIGS. 6 and 7 illustrate the results of the histological assessment, and FIG. 8 illustrates the effect of selective Bcl-2 inhibitor treatment on IgG deposition, B cells, and T cells in the kidneys.
smiles,measurement,setting,value
"CC1(C)CCC(CN2CCN(c3ccc(C(=O)NS(=O)(=O)c4ccc(NCC5CCOCC5)c([N+](=O)[O-])c4)c(Oc4cnc5[nH]ccc5c4)c3)CC2)=C(c2ccc(Cl)cc2)C1 [Compound 1, 4-(4-{[2-(4-chlorophenyl)-4,4-dimethylcyclohex-1-en-1-yl]methyl}piperazin-1-yl)-N-({3-nitro-4-[(tetrahydro-2H-pyran-4-ylmethyl)amino]phenyl}sulfonyl)-2-(1H-pyrrolo[2,3-b]pyridin-5-yloxy)benzamide]",target efficacious exposure,[1],approximately 40 μg·h/mL
same,EC50,[2],4 nM
same,hallmarks of apoptotic cell death,[3],"rapid cytochrome c release, caspase-3 and -7 activation, and membrane phosphatidylserine (PS) externalization"
same,caspase dependence of cell killing,[3]; ablated by pan caspase inhibitor z-VAD-fmk,caspase-dependent
same,Day 1 Lymphocytes,[4]; 1 oral dose of 100 mg/kg,1.38 ×10^6
same,Day 4 lymphocytes,[4]; 4 oral doses of 100 mg/kg,1.32 ×10^6
same,inhibition in vivo at 100 mg/kg,"[4]; 24 h, 1 oral dose of 100 mg/kg, read-out: Day 1 % Reduction vs. Vehicle",83%
same,inhibition in vivo at 100 mg/kg,"[4]; 96 h, 4 oral doses of 100 mg/kg, read-out: Day 4 % Reduction vs. Vehicle",83%
same,Ki,[5],> 440 nM
same,lymphocytes in peripheral blood,[6],dose dependent decrease in lymphocytes
same,platelet counts,[6],maintaining normal platelet counts
same,EC50,[7],3600 nM
same,EC50,[8],261 nM
same,EC50,[9],12 nM
same,submandibular salivary gland histology scores vs untreated,[10]; 30 mg/kg and 100 mg/kg,statistically significant improvement
same,salivary gland histology score,"[10]; 30 mg/kg and 100 mg/kg, scale 0-4, untreated mice 3-4",1-2
same,salivary gland infiltrates,[10]; 30 or 100 mg/kg,"small, discrete and less frequent"
same,anti-ds DNA titer,"[11]; spontaneous model, 1, 3 and 10 mg/kg",no appreciable reduction
same,anti-ds DNA titer vs vehicle control,"[11]; spontaneous model, week 40, 30 and 100 mg/kg",significantly inhibited the increase in anti-ds DNA titer
same,exposure,[12],40000 ng·h/mL
same,lymphopenia in the blood throughout treatment,[13]; 30 mg/kg,> 70%
same,% Mice with PU < 300 mg/dL,[13]; 30 mg/kg/day orally,77* %
same,% Survival,[13]; 30 mg/kg/day orally,82* %
same,onset of severe PU and survival,[13]; 30 and 100 mg/kg,significantly delayed the onset of severe PU and prolonged survival
same,IgG deposition in renal tissue,[14]; 30 mg/kg,decrease in IgG deposition
same,"renal histology scores (glomerulonephritis, tubular changes, perivascular infiltrates)",[14]; 30 mg/kg and 100 mg/kg,statistically significant improvement
same,B cell and T cell numbers in renal tissue,[14]; 100 mg/kg,decreases in B cell and T cell numbers
same,renal tissue infiltrates,[14]; 30 or 100 mg/kg,"small, discrete and less frequent"
